Measurements: PMC5267515, “In Vitro and Clinical Evaluations of the Drug-Drug Interaction Potential of a Metabotropic Glutamate 2/3 Receptor Agonist Prodrug with Intestinal Peptide Transporter 1” (Drug Metabolism and Disposition, 2017)
“Also recorded” adds a separate entry of the source. Read-outs that look alike come from different tables or passages of the source.

Key:
[1] = human, in vivo
clinical = conditions: human, in vivo
PEPT1 [2] = target: T1, PEPT1 (Homo sapiens, UniProt P46059); test: Inhibition of PEPT1-mediated [14C]Gly-Sar uptake in transfected HeLa cells; assay type: in vitro ADME; design: expressed in transfected cells; host or cells: HeLa cells (ATCC), transiently transfected with Fugene 6, pcDNA3.1 vector; conditions: 25 μM [14C]Gly-Sar; LY2140023 5 to 1000 μM; 3 minutes; read-out: IC50 against Gly-Sar, mean of two separate experiments
T1 sequence (P46059 1-708): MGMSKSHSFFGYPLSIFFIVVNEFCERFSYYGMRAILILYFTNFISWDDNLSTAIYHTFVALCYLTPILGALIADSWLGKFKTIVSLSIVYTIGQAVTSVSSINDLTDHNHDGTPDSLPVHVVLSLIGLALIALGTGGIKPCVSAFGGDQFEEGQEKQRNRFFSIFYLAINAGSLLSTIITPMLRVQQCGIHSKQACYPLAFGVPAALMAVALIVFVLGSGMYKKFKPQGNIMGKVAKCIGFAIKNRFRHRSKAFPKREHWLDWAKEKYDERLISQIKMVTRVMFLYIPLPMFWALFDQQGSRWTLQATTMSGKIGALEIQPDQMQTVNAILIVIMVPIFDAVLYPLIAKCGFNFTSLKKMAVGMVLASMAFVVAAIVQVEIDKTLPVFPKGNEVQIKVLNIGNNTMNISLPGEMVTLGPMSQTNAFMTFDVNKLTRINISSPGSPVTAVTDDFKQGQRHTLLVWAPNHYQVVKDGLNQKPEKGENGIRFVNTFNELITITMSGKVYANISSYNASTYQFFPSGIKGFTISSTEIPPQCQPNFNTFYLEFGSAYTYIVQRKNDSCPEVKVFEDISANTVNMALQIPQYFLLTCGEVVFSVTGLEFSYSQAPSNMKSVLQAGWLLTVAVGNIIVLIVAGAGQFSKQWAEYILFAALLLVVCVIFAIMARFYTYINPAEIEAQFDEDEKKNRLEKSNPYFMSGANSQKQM
Description: An inhibition assay was conducted using 25 μM [^14C]Gly-Sar (0.278 μCi/ml) as a probe substrate to assess if the uptake of [^14C]Gly-Sar was inhibited by prodrug (5 to 1000 μM). The cells were incubated for 3 minutes in uptake buffer containing 25 μM [^14C]Gly-Sar and different concentrations of LY2140023 at room temperature. The uptake was corrected for background determined by parallel experiment in cells transfected with pcDNA3.1 empty vector. Cell lysing and protein quantification were performed as described above.

MDCK-MDR1 cells = tested on: MDCK-MDR1 cells; design: method as in data on file, Eli Lilly and Company; conditions: ref data on file, Eli Lilly and Company; cited from earlier work
[3] = Clinical drug interaction study (H8Y-MC-HBCF), plasma and urine pharmacokinetics in healthy subjects; conditions: for Tmax: median (min–max)
Pept1 knockout mice = tested on: Pept1 knockout mice; design: method as in data on file, Eli Lilly and Company; conditions: ref data on file, Eli Lilly and Company; cited from earlier work
PEPT1 [4] = target: T1, PEPT1; test: Proton- and time-dependent transport of prodrug and active moiety in PEPT1 transfected HeLa cells; assay type: in vitro ADME; design: expressed in transfected cells; host or cells: HeLa cells (ATCC), transiently transfected with Fugene 6, pcDNA3.1 vector; conditions: 30 μM, pH 6.0 or 7.5, PEPT1 vs empty vector transfected HeLa cells
Description: The PEPT1 mediated [^14C]LY2140023 (30 μM) and [^14C]LY404039 (30 μM) uptake was measured in cells 24 hours post transfection. The time-dependent transport of LY2140023 and LY404039 was conducted using buffers prepared at either pH 6.0 or 7.5 as described above. The cells transfected with empty pcDNA3.1 vector were used to measure the passive diffusion of LY2140023 and LY404039. The cells were incubated for 1, 2.5, 5, 7.5, 10, and 15 minutes at room temperature and were washed, lysed, and contents quantified as described above.

PEPT1 [5] = target: T1, PEPT1; test: Potential for clinical DDI: estimated GI concentration (I2) versus in vitro IC50; design: expressed in transfected cells; host or cells: HeLa cells (ATCC), transiently transfected with Fugene 6, pcDNA3.1 vector; conditions: dose divided by 250 ml (glass of water)
Description: These concentrations (I2) were obtained by dividing the recommended clinical dose by a volume of 250 ml (volume of glass of water) (Table 3).
Subsequently, to normalize the inhibitory potential to the clinical dose, the in vitro IC50 values were […] (the volume of a glass of water).

[6] = Clinical study safety (adverse events) in healthy subjects; assay type: in vivo, human
PEPT1 [7] = target: T1, PEPT1; test: Inhibition of PEPT1-mediated [14C]LY2140023 uptake in transfected HeLa cells; conditions: 10 μM [14C]LY2140023
PEPT1 [8] = target: PEPT1; design: method as in Ganapathy et al. (1998); conditions: ref Ganapathy et al. (1998); read-out: Ki value (printed in column IC50 against Gly-Sar); cited from earlier work
[9] = LY2140023 80 mg + valacyclovir 1000 mg coadministered, geometric mean (CV%)
[10] = human, plasma, oral, Cmax LS Geometric Mean, LY2140023 + Valacyclovir (Test)
[11] = human, plasma, oral, Cmax, LY2140023 80 mg + valacyclovir 1000 mg coadministered, geometric mean (CV%)
[12] = human, plasma, oral, LY2140023 80 mg + valacyclovir 1000 mg coadministered

## Nc1nc2c(ncn2COCCO)c(=O)[nH]1 [Acyclovir]
[1]
  fe: 0.460 (32.0)
clinical; AUC(0-∞)
  AUC(0-inf): 17500 ng·h/mL
clinical; AUC(0-∞) LS Geometric Mean
  AUC(0-inf): 17500 ng·h/mL
clinical; Cmax
  Cmax: 4400 ng/mL
clinical; Cmax LS Geometric Mean
  Cmax: 4400 ng/mL
clinical; tmax
  Tmax: 2.5 h

## CSCC[C@H](N)C(=O)N[C@@]1(C(=O)O)CS(=O)(=O)[C@H]2[C@H](C(=O)O)[C@H]21 [LY2140023, Pomaglumetad methionil]
PEPT1 [2]
  IC50: 18 µM
MDCK-MDR1 cells
  passive permeability: approximately 1 × 10^−6 cm/s
[3]; [9]
  CL/F: 65.9 (31) L/hour
[3]; human, plasma, oral, 80 mg
  half-life: 1.92 h
[3]; human, plasma, oral, 80 mg, AUC(0-∞) LS Geometric Mean, LY2140023 Alone (Reference)
  AUC(0-inf): 1350 ng·h/mL
[3]; human, plasma, oral, 80 mg, AUC(0-∞), single 80-mg dose of LY2140023 alone, geometric mean (CV%)
  AUC(0-inf): 1330 ng·h/mL
[3]; human, plasma, oral, 80 mg, Cmax LS Geometric Mean, LY2140023 Alone (Reference)
  Cmax: 310 ng/mL
[3]; human, plasma, oral, 80 mg, Cmax, single 80-mg dose of LY2140023 alone, geometric mean (CV%)
  Cmax: 307 ng/mL
[3]; human, plasma, oral, 80 mg, single 80-mg dose of LY2140023 alone
  Tmax: 3 h
[3]; human, plasma, oral, AUC(0-∞) LS Geometric Mean, LY2140023 + Valacyclovir (Test)
  AUC(0-inf): 1220 ng·h/mL
[3]; human, plasma, oral, AUC(0-∞), LY2140023 80 mg + valacyclovir 1000 mg coadministered, geometric mean (CV%)
  AUC(0-inf): 1210 ng·h/mL
[3]; [10]
  Cmax: 275 ng/mL
[3]; [11]
  Cmax: 272 ng/mL
[3]; [12]
  Tmax: 3 h
[3]; single 80-mg dose of LY2140023 alone, geometric mean (CV%)
  CL/F: 60.2 (27) L/hour
Pept1 knockout mice
  AUC0–∞ in Pept1 knockout mice relative to wildtype mice: 10%
  Cmax in Pept1 knockout mice relative to wildtype mice: 10%
PEPT1 [4]
  PEPT1 substrate status: a PEPT1 substrate; also recorded: PEPT1-mediated, proton-dependent process
PEPT1 [4]; listed as LY2140023 monohydrate
  PEPT1 substrate status: is a substrate of PEPT1
PEPT1 [5]
  Estimated Intestinal Concentration: 0.873 mM
clinical; Vz/F
  Vd/F: 166 L
[6]; after prodrug alone (80 mg)
  most common AEs: nausea, dizziness, somnolence, and headache

## CC(C)[C@H](N)C(=O)OCCOCn1cnc2c(=O)[nH]c(N)nc21 [Valacyclovir]
[3]; [9]
  fe (fraction of the dose excreted in urine): 0.00776 (25.4)
[3]; human, plasma, oral, 1000 mg, AUC(0-3) LS Geometric Mean, Valacyclovir Alone (Reference)
  AUC(0-t): 309 ng·h/mL
[3]; human, plasma, oral, 1000 mg, AUC(0-3), single 1000-mg dose of valacyclovir alone, geometric mean (CV%), n = 22
  AUC(0-t): 311 ng·h/mL
[3]; human, plasma, oral, 1000 mg, Cmax LS Geometric Mean, Valacyclovir Alone (Reference)
  Cmax: 245 ng/mL
[3]; human, plasma, oral, 1000 mg, Cmax, single 1000-mg dose of valacyclovir alone, geometric mean (CV%)
  Cmax: 245 ng/mL
[3]; human, plasma, oral, 1000 mg, single 1000-mg dose of valacyclovir alone
  Tmax: 2 h
[3]; human, plasma, oral, AUC(0-3) LS Geometric Mean, Valacyclovir + LY2140023 (Test)
  AUC(0-t): 278 ng·h/mL
[3]; human, plasma, oral, AUC(0-3), LY2140023 80 mg + valacyclovir 1000 mg coadministered, geometric mean (CV%)
  AUC(0-t): 270 ng·h/mL
[3]; [10]
  Cmax: 258 ng/mL
[3]; [11]
  Cmax: 255 ng/mL
[3]; [12]
  Tmax: 2 h
[3]; human, urine and plasma, oral, 1000 mg
  CL renal: 262 mL/min
[3]; single 1000-mg dose of valacyclovir alone, geometric mean (CV%)
  fe: 0.00703 (64.7)
PEPT1 [7]; IC50 against LY2140023, first of two separate experiments
  IC50: 410 ± 50 µM
PEPT1 [7]; IC50 against LY2140023, second of two separate experiments
  IC50: 500 ± 110 µM
PEPT1 [7]; Mean IC50 against LY2140023, mean of two separate experiments
  IC50: 460 µM
PEPT1 [8]
  Ki: 740 µM
[6]; after 1000 mg of valacyclovir alone
  adverse events: mild AE of urticaria; also recorded: one severe AE of headache
